Results on twelve compounds are retold here after paper PMC3743159 (Chemmedchem, 2013).

The target in one data set is T1, STS (Homo sapiens, UniProt P08842).
T1 sequence (P08842 22-583): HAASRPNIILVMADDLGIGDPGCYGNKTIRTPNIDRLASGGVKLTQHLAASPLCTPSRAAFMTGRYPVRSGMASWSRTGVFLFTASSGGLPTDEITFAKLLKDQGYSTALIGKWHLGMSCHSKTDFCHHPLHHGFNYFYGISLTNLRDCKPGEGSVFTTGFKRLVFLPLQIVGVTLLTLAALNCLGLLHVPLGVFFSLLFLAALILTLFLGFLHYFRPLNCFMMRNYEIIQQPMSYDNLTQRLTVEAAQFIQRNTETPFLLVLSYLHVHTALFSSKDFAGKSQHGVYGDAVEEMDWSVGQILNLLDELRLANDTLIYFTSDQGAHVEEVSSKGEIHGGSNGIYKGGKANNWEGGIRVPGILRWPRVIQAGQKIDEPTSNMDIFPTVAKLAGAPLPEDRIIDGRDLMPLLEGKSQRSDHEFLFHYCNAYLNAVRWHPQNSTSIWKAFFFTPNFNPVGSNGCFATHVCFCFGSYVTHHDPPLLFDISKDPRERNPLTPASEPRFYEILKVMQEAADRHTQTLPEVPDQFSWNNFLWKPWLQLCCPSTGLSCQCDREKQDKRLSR
Kind of data set: In vitro inhibition of STS. The format is cell-based. To be noted: STS IC50, JEG-3 cell preparation; sulfamates.
As to `N#Cc1ccc(N(Cc2ccc(OS(N)(=O)=O)cc2F)n2cnnc2)cc1` [Compound 11, 4-{[(4-Cyanophenyl)(4H-1,2,4-triazol-4-yl)amino]methyl}-3-fluorophenyl sulfamate], half-maximal inhibition (IC50) was put at 0.021 ± 0.0035 µM.

With `N#Cc1ccc(N(Cc2c(F)cc(OS(N)(=O)=O)cc2F)n2cnnc2)cc1` [Compound 12, 4-{[(4-Cyanophenyl)(4H-1,2,4-triazol-4-yl)amino]methyl}-3,5-difluorophenyl sulfamate], half-maximal inhibition (IC50) required 0.039 ± 0.001 µM.

In turn, `N#Cc1ccc(N(Cc2ccc(OS(N)(=O)=O)c(F)c2F)n2cnnc2)cc1` [Compound 13, 4-{[(4-Cyanophenyl)(4H-1,2,4-triazol-4-yl)amino]methyl}-2,3-difluorophenyl sulfamate] came in with an IC50 of 0.048 ± 0.002 µM.

On to `N#Cc1ccc(N(Cc2ccc(OS(N)(=O)=O)c(C(F)F)c2)n2cnnc2)cc1` [Compound 15, 4-{[(4-Cyanophenyl)(4H-1,2,4-triazol-4-yl)amino]methyl}-2-(difluoromethyl)phenyl sulfamate], for which inhibition was half-maximal at 0.06 ± 0.0024 µM (IC50).

`N#Cc1ccc(N(Cc2ccc(OS(N)(=O)=O)cc2Cl)n2cnnc2)cc1` [Compound 17, 3-Chloro-4-{[(4-cyanophenyl)(4H-1,2,4-triazol-4-yl)amino]methyl}phenyl sulfamate] registered an IC50 of 0.04 ± 0.005 µM.

For the compound `N#Cc1ccc(N(Cc2c(Cl)cc(OS(N)(=O)=O)cc2Cl)n2cnnc2)cc1` [Compound 18, 3,5-Dichloro-4-{[(4-cyanophenyl)(4H-1,2,4-triazol-4-yl)amino]methyl}phenyl sulfamate], half-maximal inhibition (IC50) required 0.044 ± 0.006 µM.

For `N#Cc1ccc(N(Cc2ccc(OS(N)(=O)=O)cc2Br)n2cnnc2)cc1` [Compound 19, 3-Bromo-4-{[(4-cyanophenyl)(4H-1,2,4-triazol-4-yl)amino]methyl}phenyl sulfamate], the IC50 is 0.029 ± 0.002 µM.

Consider `NS(=O)(=O)Oc1ccc(CN(c2ccccc2)n2cnnc2)cc1` [Compound 20, 4-{[Phenyl(4H-1,2,4-triazol-4-yl)amino]methyl}phenyl sulfamate], for which the 50% inhibitory concentration (IC50) is 1.56 ± 0.116 µM.

The compound `NS(=O)(=O)Oc1ccc(CN(c2cc(F)cc(F)c2)n2cnnc2)cc1` [Compound 21, 4-{[(3,5-Difluorophenyl)(4H-1,2,4-triazol-4-yl)amino]methyl}phenyl sulfamate] gave an IC50 of 0.045 ± 0.005 µM.

`NS(=O)(=O)Oc1ccc(CN(c2ccc3c(c2)OC(F)(F)O3)n2cnnc2)cc1` [Compound 22, 4-{[(2,2-Difluorobenzo[d][1,3]dioxol-5-yl)(4H-1,2,4-triazol-4-yl)amino]methyl}phenyl sulfamate] yielded an IC50 of 0.052 ± 0.0066 µM.

Another data set deals with STS.
Assay: not given
To be noted: read-out: STS IC50; placental microsome preparation; cited from earlier work.
On to `C[C@]12CC[C@@H]3c4cc(C(F)F)c(OS(N)(=O)=O)cc4CC[C@H]3[C@@H]1CCC2=O` [2-difluoromethyloestrone 3-O-sulfamate], for which the IC50 was 0.0001 µM.

System in a further data set: not given
Assay: not given
Settings: not given
For the compound `Oc1ccc(CN(c2ccc3c(c2)OC(F)(F)O3)n2cnnc2)cc1` [Compound 22 e, 4-{[(2,2-Difluorobenzo[1,3]dioxol-5-yl)-[1,2,4]triazol-4-ylamino]methyl}phenol], the melting point was 182 to 185 °C.
